Data: patent US8669072B2, “Oxadiazoline ligands for modulating the expression of exogenous genes via an ecdysone receptor complex” (Intrexon Corporation, priority 2003, dated 2014)
Read-outs that look alike come from different tables or passages of the source.

Tests used:
[1] = target: T1, GAL4 DBD-CfEcR(DEF)/VP16AD-MmRXRE (Choristoneura fumiferana, UniProt O77240); assay: 13B3 assay: luciferase reporter gene induction in stable CHO clone 13B3; type: cell-based; settings: 48 h, read-out: Fold Induction Average, 13B3 assay
T1 construct: The wild-type D, E, and F domains from spruce budworm Choristoneura fumiferana EcR (“CfEcR-DEF”)
Experimental: CHO cells were transiently transfected with transcription cassettes for GAL4 DBD-CfEcR(DEF) and for VP16AD-MmRXRF controlled by SV40e promoters. Stably transfected cells were selected using Hygromycin. Individually isolated CHO cell clones were transiently transfected with a GAL4 RE-luciferase reporter (pFR-Luc, Stratagene, La Jolla, Calif.). The 13B3 clone was selected using Zeocin.
(§1) Cells were trypsinized and diluted to a concentration of 2.5×10^4 cells mL. 100 μL of cell suspension was placed in each well of a 96 well plate and incubated at 37° C. under 5% CO2 for 24 h. Ligand stock solutions were prepared in DMSO and diluted 300 fold for all treatments.
(§2) Luciferase reporter gene expression was measured 48 h after cell treatment using Bright-Glo™ Luciferase Assay System from Promega (E2650). Luminescence was detected at room temperature using a Dynex MLX microtiter plate luminometer.
(§3) Each assay was conducted in two separate wells, and the two values were averaged. Fold inductions were calculated by dividing relative light units (“RLU”) in ligand treated cells with RLU in DMSO treated cells. EC50s were calculated from dose response data using a three-parameter logistic model.

[2] = target: T2, GAL4 DBD (1-147)-CfEcR(DEF)/VP16AD-βRXREF-LmUSPEF (Choristoneura fumiferana, UniProt O77240); assay: cell-based; settings: for fold induction at 33.3 µM: 48 h, read-out: Fold Induction Average, 27-63 assay; for Rel Max FI, 27-63 assay: maximum fold induction relative to that of GS-E ligand
T2 construct: The wild-type D, E, and F domains from spruce budworm Choristoneura fumiferana EcR (“CfEcR-DEF”)
Experimental: Stably transfected cells were selected by Zeocin resistance. Individually isolated CHO cell clones were transiently transfected with a GAL4 RE-luciferase reporter (pFR Luc). 27-63 clone was selected using Hygromycin.
as §1, §2, §3

Bombyx mori EcR (VBE) = target: T3, Bombyx mori EcR (VBE) (Bombyx mori, UniProt P49881); assay: Z3 assay: β-galactosidase reporter gene induction in HEK-293 clone Z3 (CVBE / 6XEcRE LacZ); type: cell-based; settings: read-out: Fold Induction Average, Z3 assay
T3 construct: expressed in transfected cells; host or cells: Human HEK-293 cells, retrovirally infected, clone Z3
T3 sequence (P49881 86-606 limits assumed): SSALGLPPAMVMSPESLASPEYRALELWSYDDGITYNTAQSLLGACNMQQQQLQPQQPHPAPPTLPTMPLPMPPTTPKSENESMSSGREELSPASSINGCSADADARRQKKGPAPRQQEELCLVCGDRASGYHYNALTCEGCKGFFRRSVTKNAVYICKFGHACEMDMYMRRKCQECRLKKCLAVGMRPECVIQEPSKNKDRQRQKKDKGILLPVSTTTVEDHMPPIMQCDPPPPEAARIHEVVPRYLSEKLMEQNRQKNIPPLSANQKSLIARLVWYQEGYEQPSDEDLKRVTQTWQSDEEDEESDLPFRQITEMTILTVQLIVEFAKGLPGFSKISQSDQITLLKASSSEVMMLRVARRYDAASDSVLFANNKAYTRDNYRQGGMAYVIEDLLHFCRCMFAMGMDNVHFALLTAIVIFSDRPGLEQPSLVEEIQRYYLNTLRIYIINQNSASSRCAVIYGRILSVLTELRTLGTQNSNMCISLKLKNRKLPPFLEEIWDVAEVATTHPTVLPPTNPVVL
T3 sequence (P19793 1-462 partner): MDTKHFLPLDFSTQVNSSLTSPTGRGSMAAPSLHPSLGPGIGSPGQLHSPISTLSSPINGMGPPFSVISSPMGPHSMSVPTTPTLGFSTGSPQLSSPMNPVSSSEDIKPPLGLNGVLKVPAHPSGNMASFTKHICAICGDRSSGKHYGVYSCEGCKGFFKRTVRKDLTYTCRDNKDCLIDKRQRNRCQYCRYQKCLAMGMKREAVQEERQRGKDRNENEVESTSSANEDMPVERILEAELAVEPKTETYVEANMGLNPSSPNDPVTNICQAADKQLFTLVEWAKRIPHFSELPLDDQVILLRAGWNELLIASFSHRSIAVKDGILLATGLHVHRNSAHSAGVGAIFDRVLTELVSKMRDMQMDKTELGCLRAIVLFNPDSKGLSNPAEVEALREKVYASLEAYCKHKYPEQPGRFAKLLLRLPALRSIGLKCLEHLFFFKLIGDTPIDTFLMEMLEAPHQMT
Experimental: A synthetic ATG start codon was placed under the control of cytomegalovirus (CVBE) immediate early promoter and flanked by long terminal repeats (LTR). The reporter construct contained six copies of the ecdysone response element (EcRE) binding site placed upstream of LacZ and flanked on both sides with LTR sequences (6×EcRE).
Dilution cloning was used to isolate individual clones. Clones were selected using 450 ug/mL G418 and 100 ng/mL puromycin. Individual clones were evaluated based on their response in the presence and absence of test ligands.
Z3 cells were seeded into 96-well tissue culture plates at a concentration of 2.5×10^3 cells per well and incubated at 37° C. in 5% CO2 for twenty-four hours. Stock solutions of ligands were prepared in DMSO. […] The final concentration of DMSO was maintained at 0.03% in both controls and treatments.
Reporter gene expression was evaluated 48 hours after treatment of cells, β-galactosidase activity was measured using Gal Screen™ bioluminescent reporter gene assay system from Tropix (GSY1000). Fold induction activities were calculated by dividing relative light units (“RLU”) in ligand treated cells with RLU in DMSO treated cells. Luminescence was detected at room temperature using a Dynex MLX microtiter plate luminometer.
as §3

[3] = 33/33.3 μM ligand, RLU relative to DMSO
[4] = HEK293, 33 μM ligand, 48 h, RLU relative to DMSO

CCc1ccc(C(=O)NN2C(c3ccc(OC(F)(F)F)cc3)=NOC2(C)C)cc1 [RG-120055]
fold induction at 33.3 µM [1, 3]: 0.7 | EC50 [2]: > 33 µM | fold induction at 33.3 µM [2]: 0.5 | Rel Max FI, 27-63 assay [2]: 0 | fold induction at 33 µM (Bombyx mori EcR (VBE); [4]): 0.2

CCc1c(OC)cccc1C(=O)NN1C(c2ccc(OC)cc2OC)=NOC1(C)C [RG-120058]
fold induction at 33.3 µM [1, 3]: 0.3 | EC50 [2]: > 33 µM | fold induction at 33.3 µM [2]: 0.3 | Rel Max FI, 27-63 assay [2]: 0 | fold induction at 33 µM (Bombyx mori EcR (VBE); [4]): 1.7

CCc1ccc(C(=O)NN2C(c3ccc4c(c3)OCO4)=NOC2(C)C)cc1 [RG-120061]
fold induction at 33.3 µM [1, 3]: 0.4 | EC50 [2]: > 33 µM | fold induction at 33.3 µM [2]: 0.9 | Rel Max FI, 27-63 assay [2]: 0 | fold induction at 33 µM (Bombyx mori EcR (VBE); [4]): 0.6

CCc1ccc(C(=O)NN2C(c3ccccc3)=NOC2(C)C)cc1 [RG-120115]
fold induction at 33.3 µM [1]: 0.8 | EC50 [2]: > 33 µM | Rel Max FI, 27-63 assay [2]: 0 | fold induction at 33 µM (Bombyx mori EcR (VBE); HEK293, 48 h): 9.1

CCC1(C)ON=C(c2ccccc2)N1NC(=O)c1ccccc1 (centres unmarked) [RG-120118]
fold induction at 33.3 µM [1, 3]: 0.8 | EC50 [2]: > 33 µM | fold induction at 33.3 µM [2]: 13.4 | Rel Max FI, 27-63 assay [2]: 0 | fold induction at 33 µM (Bombyx mori EcR (VBE); [4]): 1.4

CCc1ccc(C(=O)NN2C(c3ccccc3)=NOC23CCOCC3)cc1 [RG-120124]
fold induction at 33.3 µM [1, 3]: 1.2 | EC50 [2]: > 33 µM | fold induction at 33.3 µM [2]: 1 | Rel Max FI, 27-63 assay [2]: 0 | fold induction at 33 µM (Bombyx mori EcR (VBE); [4]): 2

CCc1ccc(C(=O)NN2C(c3ccc(OC)cc3OC)=NOC2(C)C)cc1 [RG-120135]
fold induction at 33.3 µM [1, 3]: 0.4 | EC50 [2]: > 33 µM | fold induction at 33.3 µM [2]: 0.7 | Rel Max FI, 27-63 assay [2]: 0 | fold induction at 33 µM (Bombyx mori EcR (VBE); [4]): 0.7

CCc1ccc(C(=O)NN2C(c3ccccc3)=NOC2(C)CC)cc1 (centres unmarked) [RG-120137]
fold induction at 33.3 µM [1, 3]: 5.3 | EC50 [2]: > 33 µM | fold induction at 33.3 µM [2]: 4.6 | Rel Max FI, 27-63 assay [2]: 0 | fold induction at 33 µM (Bombyx mori EcR (VBE); [4]): 59

CCc1c(OC)cccc1C(=O)NN1C(c2ccccc2)=NOC12CCOCC2 [RG-120159]
fold induction at 33.3 µM [1, 3]: 0.1 | EC50 [2]: > 33 µM | fold induction at 33.3 µM [2]: 3.7 | Rel Max FI, 27-63 assay [2]: 0 | fold induction at 33 µM (Bombyx mori EcR (VBE); [4]): 0.2
